Reference: patent US20240158446A1, “CYCLIC COMPOUND HAVING SELECTIVE INHIBITORY ACTION ON KRAS OVER HRAS AND NRAS” (CHUGAI SEIYAKU KABUSHIKI KAISHA, priority 2021, published 2024)

Assays:
[1] = molecular target: GDP-bound NRAS wild-type protein (Homo sapiens, UniProt P01111); test: Binding to NRAS by surface plasmon resonance (SPR), Single Cycle Kinetics; settings: SPR, GDP-bound NRAS wild-type protein vs GDP-bound KRAS wild-type protein
[2] = molecular target: GDP-bound HRAS wild-type protein (Homo sapiens, UniProt P01112); test: Binding to HRAS by surface plasmon resonance (SPR), Single Cycle Kinetics; settings: SPR, GDP-bound HRAS wild-type protein vs GDP-bound KRAS wild-type protein
Chain of GDP-bound HRAS wild-type protein (P01112 whole entry): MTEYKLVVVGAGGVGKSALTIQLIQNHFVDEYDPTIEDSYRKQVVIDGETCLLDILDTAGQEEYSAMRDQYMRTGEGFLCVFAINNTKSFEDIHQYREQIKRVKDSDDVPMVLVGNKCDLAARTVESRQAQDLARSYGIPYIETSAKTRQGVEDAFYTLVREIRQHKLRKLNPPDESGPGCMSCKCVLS

Chain of GDP-bound NRAS wild-type protein (P01111 whole entry): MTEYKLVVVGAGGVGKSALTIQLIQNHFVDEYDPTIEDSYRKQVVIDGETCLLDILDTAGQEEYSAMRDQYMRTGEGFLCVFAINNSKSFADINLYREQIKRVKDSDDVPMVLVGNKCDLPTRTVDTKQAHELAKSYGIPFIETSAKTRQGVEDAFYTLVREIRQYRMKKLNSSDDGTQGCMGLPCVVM

| Structure (SMILES) | NRAS/KRAS (ratio of KD value for NRAS to KD value for KRAS) [1] | HRAS/KRAS (ratio of KD value for HRAS to KD value for KRAS) [2] |
| --- | --- | --- |
| CCO[C@@H]1C[C@H]2C(=O)NC3(CCC3)C(=O)N(C)[C@@H](C3CCCC3)C(=O)N(C)[C@H](C(=O)N3CCOCC3)CC(=O)N(C)[C@@H](CC(C)C)C(=O)N[C@@H]([C@@H](C)CC)C(=O)N3CC[C@H]3C(=O)N(C)[C@H]3C[C@@H](C)CCN(C3=O)[C@@H](Cc3ccc(C(F)(F)F)cc3)C(=O)N(C)CC(=O)N[C@@H](CCc3cc(F)c(C(F)(F)F)c(F)c3)C(=O)N2C1 [PP1026] | B (a compound having 3 or more and less than 10 is denoted as B) | B (a compound having 3 or more and less than 10 is denoted as B) |
| CCO[C@@H]1C[C@H]2C(=O)NC3(CCC3)C(=O)N(C)[C@@H](C3CCCC3)C(=O)N(C)[C@H](C(=O)N3CCOCC3)CC(=O)N(CC)[C@@H](CC(C)C)C(=O)N[C@@H]([C@@H](C)CC)C(=O)N(C)CC(=O)N(C)[C@H]3C[C@@H](C)CCN(C3=O)[C@@H](Cc3ccc(C(F)(F)F)cc3)C(=O)N(C)CC(=O)N[C@@H](CCc3cc(F)c(C(F)(F)F)c(F)c3)C(=O)N2C1 [PP1030] | B (a compound having 3 or more and less than 10 is denoted as B) | B (a compound having 3 or more and less than 10 is denoted as B) |
| CCO[C@@H]1C[C@H]2C(=O)NC3(CCC3)C(=O)N(C)[C@@H](C3CCCC3)C(=O)N(C)[C@H](C(=O)N(C)C)CC(=O)N(C)[C@@H](CC(C)C)C(=O)N[C@@H]([C@@H](C)CC)C(=O)N(C)CC(=O)N(C)[C@H]3CC(C)=CCN(C3=O)[C@@H](Cc3ccc(C(F)(F)F)cc3)C(=O)N(C)CC(=O)N[C@@H](CCc3cc(F)c(C(F)(F)F)c(F)c3)C(=O)N2C1 [PP1032] | C (A compound having a KD ratio of 0.1 or more and less than 3 is denoted as C) | C (A compound having a KD ratio of 0.1 or more and less than 3 is denoted as C) |
| CCO[C@@H]1C[C@H]2C(=O)NC3(CCC3)C(=O)N(C)[C@@H](C3CCCC3)C(=O)N(C)[C@H](C(=O)N3CCOCC3)CC(=O)N(C)[C@@H](CC(C)C)C(=O)N[C@@H]([C@@H](C)CC)C(=O)N(C)CC(=O)N(C)[C@H]3CC(C)=CCN(C3=O)[C@@H](Cc3ccc(C(F)(F)F)cc3)C(=O)N(C)CC(=O)N[C@@H](CCc3cc(F)c(C(F)(F)F)c(F)c3)C(=O)N2C1 [PP1039] | C (A compound having a KD ratio of 0.1 or more and less than 3 is denoted as C) | C (A compound having a KD ratio of 0.1 or more and less than 3 is denoted as C) |
| CCO[C@@H]1C[C@H]2C(=O)NC3(CCC3)C(=O)N(C)[C@@H](C3CCCC3)C(=O)N(C)[C@H](C(=O)N(C)C)CC(=O)N(C)[C@@H](CC)C(=O)N[C@@H]([C@@H](C)CC)C(=O)N(C)CC(=O)N(C)[C@H]3CC(C)=C(C)CN(C3=O)[C@@H](Cc3ccc(C(F)(F)F)cc3)C(=O)N(C)CC(=O)N[C@@H](CCc3cc(F)c(C(F)(F)F)c(F)c3)C(=O)N2C1 [PP1048] | C (A compound having a KD ratio of 0.1 or more and less than 3 is denoted as C) | C (A compound having a KD ratio of 0.1 or more and less than 3 is denoted as C) |
| CCO[C@@H]1C[C@H]2C(=O)NC3(CCC3)C(=O)N(C)[C@@H](C3CCCC3)C(=O)N(C)[C@H](C(=O)N(C)C)CC(=O)N(C)[C@@H](CC)C(=O)N[C@@H]([C@@H](C)CC)C(=O)N3CCC[C@H]3C(=O)N(C)[C@H]3C/C=C\CCN(C3=O)[C@@H](Cc3ccc(C(F)(F)F)cc3)C(=O)N(C)CC(=O)N[C@@H](CCc3cc(F)c(C(F)(F)F)c(F)c3)C(=O)N2C1 [PP1056] | A (a compound having 10 or more and less than 20 is denoted as A) | A (a compound having 10 or more and less than 20 is denoted as A) |
| CCO[C@@H]1C[C@H]2C(=O)NC3(CCC3)C(=O)N(C)[C@@H](C3CCCC3)C(=O)N(C)[C@H](C(=O)N(C)C)CC(=O)N(C)[C@@H](CC)C(=O)N[C@@H]([C@@H](C)CC)C(=O)N3CCCC[C@H]3C(=O)N(C)[C@H]3C/C=C\CCN(C3=O)[C@@H](Cc3ccc(C(F)(F)F)cc3)C(=O)N(C)CC(=O)N[C@@H](CCc3cc(F)c(C(F)(F)F)c(F)c3)C(=O)N2C1 [PP1058] | A (a compound having 10 or more and less than 20 is denoted as A) | B (a compound having 3 or more and less than 10 is denoted as B) |
| CCO[C@@H]1C[C@H]2C(=O)NC3(CCC3)C(=O)N(C)[C@@H](C3CCCC3)C(=O)N(C)[C@H](C(=O)N(C)C)CC(=O)N(C)[C@@H](CC)C(=O)N[C@@H]([C@@H](C)CC)C(=O)N3CC[C@@H]3C(=O)N(C)[C@H]3C/C=C\CCN(C3=O)[C@@H](Cc3ccc(C(F)(F)F)cc3)C(=O)N(C)CC(=O)N[C@@H](CCc3cc(F)c(C(F)(F)F)c(F)c3)C(=O)N2C1 [PP1064] | A (a compound having 10 or more and less than 20 is denoted as A) | A (a compound having 10 or more and less than 20 is denoted as A) |
| CC[C@H](C)[C@@H]1NC(=O)[C@H](CC(C)C)N(C)C(=O)C[C@@H](C(=O)N2CCOCC2)N(C)C(=O)[C@H](C2CCCC2)N(C)C(=O)C2(CCC2)NC(=O)[C@@H]2[C@H](OC)CCN2C(=O)[C@H](CCc2cc(F)c(C(F)(F)F)c(F)c2)NC(=O)CN(C)C(=O)[C@H](Cc2ccc(C(F)(F)F)cc2)N2CCCC[C@@H](C2=O)N(C)C(=O)CN(C)C1=O [PP1078] | B (a compound having 3 or more and less than 10 is denoted as B) | B (a compound having 3 or more and less than 10 is denoted as B) |
| CCO[C@@H]1CCN2C(=O)[C@H](CCc3cc(F)c(C(F)(F)F)c(F)c3)NC(=O)CN(C)C(=O)[C@H](Cc3ccc(C(F)(F)F)cc3)N3CCCCC[C@@H](C3=O)N(C)C(=O)CN(C)C(=O)[C@H]([C@@H](C)CC)NC(=O)[C@H](CC(C)C)N(C)C(=O)C[C@@H](C(=O)N3CCOCC3)N(C)C(=O)[C@H](C3CCCC3)N(C)C(=O)C3(CCC3)NC(=O)[C@H]12 [PP1082] | A (a compound having 10 or more and less than 20 is denoted as A) | B (a compound having 3 or more and less than 10 is denoted as B) |
| CCCO[C@@H]1CCN2C(=O)[C@H](CCc3cc(F)c(C(F)(F)F)c(F)c3)NC(=O)CN(C)C(=O)[C@H](Cc3ccc(C(F)(F)F)cc3)N3CCCCC[C@@H](C3=O)N(C)C(=O)CN(C)C(=O)[C@H]([C@@H](C)CC)NC(=O)[C@H](CC(C)C)N(C)C(=O)C[C@@H](C(=O)N3CCOCC3)N(C)C(=O)[C@H](C3CCCC3)N(C)C(=O)C3(CCC3)NC(=O)[C@H]12 [PP1083] | B (a compound having 3 or more and less than 10 is denoted as B) | B (a compound having 3 or more and less than 10 is denoted as B) |
| CC[C@H](C)[C@@H]1NC(=O)[C@H](CC(C)C)N(C)C(=O)C[C@@H](C(=O)N2CCOCC2)N(C)C(=O)[C@H](C2CCCC2)N(C)C(=O)C2(CCC2)NC(=O)[C@@H]2[C@H](OC)CCN2C(=O)[C@H](CCc2cc(F)c(C(F)(F)F)c(F)c2)NC(=O)CN(C)C(=O)[C@H](Cc2ccc(C(F)(F)F)cc2)N2CCCC[C@@H](C2=O)N(C)C(=O)CN(C)C1=O [PP1084] | C (A compound having a KD ratio of 0.1 or more and less than 3 is denoted as C) | B (a compound having 3 or more and less than 10 is denoted as B) |
